Where a SMILES comes first, the peptide text is derived from it.
Structure (SMILES) | logP
NC1=NCC(COc2cccc(Cl)c2)O1 (stereo not given) | 2.09
O=c1ccc2cc3ccoc3cc2s1 | 2.61
O=CC(=C(Cl)C(=O)O)C(Cl)Cl | 1.13
Cc1ccc(OCC2CN=C(N)O2)c(C)c1 (stereo not given) | 2.23
Brc1cc2ccc3cccc4ccc(c1)c2c34 | 5.8
Cc1ccc(CO)c(C=NNC(=O)c2ccccc2)c1O | 3.01
O=C(Nc1ncc([N+](=O)[O-])s1)c1ccc(Cl)c(Cl)c1 | 4.14
CCC(C)SSc1ncc[nH]1 (stereo not given) | 2.76
O=C1Oc2ccccc2CN1CCO[N+](=O)[O-] | 1.82
O=C(O)C1CSC(c2cc(O)ccc2O)=N1 (stereo not given) | 0.9
CCC1(C(=O)NC(C)c2ccc(Cl)cc2)C(C)C1(Cl)Cl (stereo not given) | 4.23
Nc1nnnn1-c1ccc(Cl)cc1Cl | 1.62
CCOP(=O)(OCC)C(C)(C)[N+]([O-])=Cc1cccnc1 | 0.41
O=C(O)C1CSC(c2ccc(O)cc2O)=N1 (stereo not given) | 1.1
NC(=S)NN=C(c1cccc([N+](=O)[O-])c1)c1ccccn1 | 1.9
COC(=O)c1cccc(C)c1S(=O)(=O)NC(=O)Nc1nc(OCC(F)(F)F)nc(N(C)C)n1 | 3.56
CC(=O)c1ccc2ccc3cccc4ccc1c2c34 | 4.18
CN1CCN(C2=NC(=O)N(c3ccc(Cl)cc3)C2)CC1 | 2.2

Structure (SMILES) | logP
Brc1c2ccccc2cc2ccccc12 | 5.37
COc1cc(S(C)=O)ccc1-c1cn2cc(N)cnc2n1 (stereo not given) | 0.37
Cc1sc2ccc3c(C)cc(=O)oc3c2c1C | 3.65
Nc1nc(N)c2c(Cl)cccc2n1 | 1.72
Cc1oc2nc3oc(=O)c(C)c(C)c3cc2c1C | 2.71
COc1nc(N)nc(NC(C)(C)C)n1 | 1.93
N=C1C=CC(=C(c2ccc(N)cc2)c2ccc(N)cc2)C=C1 | -0.21
COc1cccc2c1OP(=O)(OCC1C=CC(n3cc(C)c(=O)[nH]c3=O)O1)OC2 (stereo not given) | 0.15
COc1ccc2c(c1)C(=O)N(CCO[N+](=O)[O-])CO2 | 2.07
Clc1ccc(-c2c[nH]cc2N2CCOCC2)cc1 | 3.2
CCc1ccc(CNc2[nH]cnc3ncnc2-3)cc1 | 3.17
NC1=NCC(COc2ccc(-c3ccccc3)cc2)O1 (stereo not given) | 2.8
Cc1coc2c1c(C)cc1oc(=O)cc(C)c12 | 3.28
CC(C)OP(=O)(OC(C)C)C(Cl)(Cl)P(=O)(OC(C)C)OC(C)C | 2.89
NS(=O)(=O)c1ccncn1 | -0.2
C[N+](C)([O-])CCc1ccccc1 | -0.28
CC(=O)OC1CC(OC2C(O)CC(OC3C(O)CC(OC4CCC5(C)C(CCC6C5CC(O)C5(C)C(C7=CC(=O)OC7)CCC65O)C4)OC3C)OC2C)OC(C)C1OC(C)=O (stereo not given) | 2.59
Cc1[nH]cnc1CSCCNc1ncc(Cc2cccc3c2OCO3)c(=O)n1C | 2.51

Second part, the compound after the results:

logP | Structure (SMILES)
2.64 | OC(CNC1CCCCC1)CON=C(C1CC1)C1CC1 (stereo not given)
-1.59 | CSCCC(NC(=O)C(N)Cc1ccccc1)C(=O)O (stereo not drawn) (H-Phe-Met-OH; configuration not given here)
1.26 | C1CCC2OC2C1 (stereo not given)
-0.02 | CC(=O)OC1C(C)OC(n2cc(F)c(=O)[nH]c2=O)C1OC(C)=O (stereo not given)
2.23 | CCCc1nc(NCC)nc(N2CCOCC2)n1
2.22 | CCCCOCCCNc1[nH]cnc2ncnc1-2
3.34 | COc1ccc(C(=O)NN=Cc2c(CO)ccc(C)c2O)cc1
-1.99 | CCC(C)C(NC(=O)C(CC(C)C)NC(=O)C(N)CO)C(=O)O (stereo not drawn) (H-Ser-Leu-Ile-OH; configuration not given here)
4.23 | COC(=O)c1c(Oc2nc(OC)cc(OC)n2)cccc1C(C)=NOCC=C(Cl)Cl
3.08 | C[C@]12CCC(=O)C=C1[C@@H]1C[C@@H]1[C@@H]1[C@@H]2CC[C@@]2(C)[C@H]1CC[C@@]21CCC(=O)O1
3.9 | CCCC(=NOCC)C1=C(O)CC2(CCCCC2C)OC1=O (stereo not given)
1.6 | CC(C)CCNc1ncnc2c1ncn2C1OC(CO)C(O)C1O (stereo not given)
3.9 | CCOC(=O)c1[nH]cc(-c2ccc(Cl)cc2)c1N1CCOCC1
-0.94 | CC(C)CC(N)C(=O)NC(CC(C)C)C(=O)NC(CC(C)C)C(=O)O (stereo not drawn) (H-Leu-Leu-Leu-OH; configuration not given here)
3.54 | CC(C)(C)NCC(COc1nsnc1N1CCOCC1)OC(=O)C1CC1 (stereo not given)
-1.58 | CC(C)CC(N)C(=O)NC(CC(C)C)C(=O)N1CCCC1C(=O)O (stereo not drawn) (H-Leu-Leu-Pro-OH; configuration not given here)
-1.18 | CC(C)CC(N)C(=O)NC(C(=O)NCC(=O)NC(C(=O)NC(Cc1ccccc1)C(=O)O)C(C)O)C(C)C (stereo not given) (H-LVGTF-OH; configuration not given here)
1.3 | COC(=O)C1=C(C)NC(C)=C(P2(=O)OCCCO2)C1c1ccccc1[N+](=O)[O-] (stereo not given)
6.64 | ClCC1(C(Cl)Cl)C2CC(Cl)(Cl)C1(C(Cl)Cl)C(Cl)C2(Cl)Cl (stereo not given)
1.41 | O=C(O)CCC(=O)OC1Cc2c(O)cc(O)cc2OC1c1ccc(O)c(O)c1 (stereo not given)
2.88 | NC(=O)C(CCCN1CC2CCC(CC2)C1)(c1ccccc1)c1ccccn1 (stereo not given)
-1.79 | CCC(C)C(N)C(=O)N1CCCC1C(=O)O (stereo not drawn) (H-Ile-Pro-OH; configuration not given here)
1.4 | Cc1ccc(N2CC(N3CCOCC3)=CC2=O)cc1
2.65 | CC(C)(C)OC(=O)NC(Cc1c[nH]c2ccccc12)C(=O)O (stereo not given)

Source: the OPERA property sets (Mansouri et al. 2018)
